In patent US8809280B2, “Therapeutic peptides” (Lytix Biopharma AS, priority 2009, dated 2014):
Converted amounts (≈) assume the structure as drawn. “And” between values parts separate entries of the source, which are not always exact repeats. Equal entries are not always repeated. Where two headings read alike, the source gives them in different places. Starred links: 1 amine or outer side, 2 acyl side, 3 side chain; linkers in the order of their positions; H or OH if unused. Non-standard residues stand in square brackets, D forms with d. Residues, ends and D or L forms follow the SMILES beside them. X1 = Cc1cc(C)cc(CC(CN[*:1])(Cc2cc(C)cc(C)c2)C(=O)[*:2])c1; X2 = O=C(C(CCCc1ccccc1)(CCCc1ccccc1)CN[*:1])[*:2]; X5 = O=C(C(CCC1CCCCC1)(CCC1CCCCC1)CN[*:1])[*:2]; X3 = O=C(C(CN[*:1])(Cc1ccccc1)Cc1ccccc1)[*:2]

Assays:
Format in all cases: cell-based
A20 = assay: cells; conditions: for IC50: Mus musculus, A20, Example 2, read-out: Anticancer potency (IC50) A20; for Anti-Cancer Selectivity MRC-5/A20: ratio of MRC-5 to A20 values; for Anti-Cancer Selectivity RBC/A20: ratio of RBC EC50 to A20 IC50
Procedure: Cancer Cell Lines A20 or MethA Anticancer assays: 500 μg/ml

[1] = test system: methicillin resistant Staphylococcus epidermidis (ATCC 27626); assay: microbe, parasite or virus in culture; conditions: Example 2, values separated by / are repeat tests; for MIC: Staphylococcus epidermidis, ATCC 27626 / MRSE, read-out: Antimicrobial potency (MIC) MRSE
How it was run: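 Exponentially grown bacteria (2% peptone water) at 2×10^6 cfu/ml exposed in duplicate to di-TFA salts at 0.5–200 μg/ml. Growth or no growth judged by well turbidity; no-peptide and gentamicin controls included.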

[2] = test system: Staphylococcus aureus (ATTC 25923); assay: microbe, parasite or virus in culture; conditions: Example 2, values separated by / are repeat tests; for MIC: Staphylococcus aureus, read-out: Antimicrobial potency (MIC) S. aureus
How it was run: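 Di-TFA salts tested in duplicate at 0.5–200 μg/ml against exponential-phase bacteria at 2×10^6 cfu/ml grown in 2% peptone water. Growth judged by well turbidity, with no-peptide and gentamicin controls.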

[3] = test system: Escherichia coli (ATTC 25922); assay: microbe, parasite or virus in culture; conditions: Example 2, values separated by / are repeat tests; for MIC: Escherichia coli, read-out: Antimicrobial potency (MIC) E. coli
How it was run: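 Broth dilution in 2% Bacto Peptone water, inoculum 2×10^6 cfu/ml of exponential-phase bacteria; compounds (di-TFA salts) tested in duplicate at 200 down to 0.5 μg/ml. Growth judged by well turbidity, with no-peptide negative and gentamicin positive controls.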

human red blood cells = assay: cells; conditions: Homo sapiens, Erythrocyte; Example 2; highest concentration tested 1000 μg/ml; * low solubility in the test media; read-out: Toxicity RBC (EC50)
How it was run: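 Washed heparinized RBCs, diluted to 10% hematocrit then to 1% v/v final, incubated with compounds in PBS (1–1000 μg/mL) for 1 h at 37 °C with agitation. Hemoglobin release read at 405 nm against PBS (0%) and 0.1% Triton X-100 (100%); value reported is concentration giving 50% hemolysis.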

MRC-5 = assay: Toxicity assay MRC-5; conditions: highest concentration tested 500 μg/ml; for IC50: Homo sapiens, MRC5, Example 2; for Toxicity MRC-5: Example 2
Procedure: Cells for Toxicity Studies Used MRC-5 and human RBC MRC-5 assay: 500 μg/ml

[4] = test system: methicillin resistant Staphylococcus aureus (ATCC 33591); assay: microbe, parasite or virus in culture; conditions: Example 2, values separated by / are repeat tests; for MIC: Staphylococcus aureus, ATCC 33591 / MRSA, read-out: Antimicrobial potency (MIC) MRSA
How it was run: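 Di-TFA salts tested in duplicate at 200 down to 0.5 μg/ml against exponentially grown bacteria at 2×10^6 cfu/ml. Growth judged by well turbidity, with no-peptide and gentamicin controls.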

[5] = Example 2, highest concentration tested 500 μg/ml, * low solubility in the test media (Table 2)
[6] = highest concentration tested 500 μg/ml, * low solubility in the test media (Table 2)

Row | Anticancer potency (IC50) A20 (A20; [5]) [µg/mL] | IC50 (A20; [6]) [µg/mL] | Antimicrobial potency (MIC) MRSE [1] [µg/mL] | MIC [1] [µg/mL] | Antimicrobial potency (MIC) S. aureus [2] [µg/mL] | MIC [2] [µg/mL] | MIC [3] [µg/mL] | Antimicrobial potency (MIC) E. coli [3] [µg/mL] | MIC [4] [µg/mL] | Anticancer potency (IC50) A20 (A20) [µg/mL] | Antimicrobial potency (MIC) MRSA [4] [µg/mL] | SMILES | Anti-Cancer Selectivity MRC-5/A20 (A20) | Anti-Cancer Selectivity RBC/A20 (A20) | EC50 (human red blood cells) [µg/mL] | IC50 (MRC-5) [µg/mL] | Toxicity MRC-5 (MRC-5)
1 | – | – | – | – | – | – | – | – | – | 24 | – | NCCCC[C@@H](N)C(=O)N[C@H](CCCCN)C(=O)N[C@H](Cc1c[nH]c2ccccc12)C(=O)NCC(Cc1ccc2ccccc2c1)(Cc1ccc2ccccc2c1)C(=O)N[C@@H](Cc1c[nH]c2ccccc12)C(=O)N[C@@H](CCCCN)C(=O)N[C@@H](CCCCN)C(N)=O [Compound 18, (R)-N-((2R,9S,12S,15S)-9-((1H-indol-3-yl)methyl)-19-amino-12-(4-aminobutyl)-15-carbamoyl-1-(1H-indol-3-yl)-6,6-bis(naphthalen-2-ylmethyl)-3,7,10,13-tetraoxo-4,8,11,14-tetraazanonadecan-2-yl)-6-amino-2-((R)-2,6-diaminohexanamido)hexanamide] | 4.3 | – | – | – | 103 µg/mL
2 | – | – | – | – | – | – | – | – | – | 15.0 | – | NCCCC[C@@H](N)C(=O)N[C@H](CCCCN)C(=O)N[C@H](Cc1c[nH]c2ccccc12)C(=O)NCC(CCC1CCCCC1)(CCC1CCCCC1)C(=O)N[C@@H](Cc1c[nH]c2ccccc12)C(=O)N[C@@H](CCCCN)C(=O)N[C@@H](CCCCN)C(N)=O [Compound 15, (R)-N-((2R,9S,12S,15S)-9-((1H-indol-3-yl)methyl)-19-amino-12-(4-aminobutyl)-15-carbamoyl-6,6-bis(2-cyclohexylethyl)-1-(1H-indol-3-yl)-3,7,10,13-tetraoxo-4,8,11,14-tetraazanonadecan-2-yl)-6-amino-2-((R)-2,6-diaminohexanamido)hexanamide] (H-[dK][dK][dW][X5]WKK-NH2) | 3.0 | – | – | – | 45.7 µg/mL
3 | – | 8.3 (≈ 22.6 µM) | – | 15 (≈ 40.8 µM) | 50 | 35 (≈ 95.2 µM) | 200 (≈ 544 µM) | – | 35 (≈ 95.2 µM) | – | – | NCCNC(=O)C(CN)(CCCc1ccccc1)CCCc1ccccc1 [Compound 6, N-(2-aminoethyl)-2-(aminomethyl)-5-phenyl-2-(3-phenylpropyl)pentanamide] | 4.2 | 98.8 | 820 (≈ 2230 µM) | 35 (≈ 95.2 µM) | –
4 | – | – | – | 5 (≈ 12.6 µM) | 10 | 5 (≈ 12.6 µM) | – | – | 5 (≈ 12.6 µM) | – | 10 | CC(C)c1ccc(CC(CN)(Cc2ccc(C(C)C)cc2)C(=O)NCCN)cc1 [Compound 10, 3-amino-N-(2-aminoethyl)-2,2-bis(4-isopropylbenzyl)propanamide] | (<4.8) | 33.6 | 47 (≈ 119 µM) | < 6.67 | –
5 | – | – | – | – | – | – | – | – | – | 263 | – | NCCCC[C@@H](N)C(=O)N[C@H](CCCCN)C(=O)N[C@H](Cc1c[nH]c2ccccc12)C(=O)NCC(Cc1ccccc1)(Cc1ccccc1)C(=O)N[C@@H](Cc1c[nH]c2ccccc12)C(=O)N[C@@H](CCCCN)C(=O)N[C@@H](CCCCN)C(N)=O [Compound 16, (R)-N-((2R,9S,12S,15S)-9-((1H-indol-3-yl)methyl)-19-amino-12-(4-aminobutyl)-6,6-dibenzyl-15-carbamoyl-1-(1H-indol-3-yl)-3,7,10,13-tetraoxo-4,8,11,14-tetraazanonadecan-2-yl)-6-amino-2-((R)-2,6-diaminohexanamido)hexanamide] (H-[dK][dK][dW][X3]WKK-NH2) | (>1.9) | – | – | – | >500 µg/mL
6 | – | 68.6 (≈ 220 µM) | – | > 200 | – | > 200 | > 200 | – | > 200 | – | – | NCCNC(=O)C(CN)(Cc1ccccc1)Cc1ccccc1 [Compound 4] | 3.8 | – | > 1000 | 261 (≈ 838 µM) | –

Further lines, the molecule ahead of its results:

Row | SMILES | Anticancer potency (IC50) A20 (A20; [5]) [µg/mL] | IC50 (A20; [6]) [µg/mL] | Antimicrobial potency (MIC) MRSE [1] [µg/mL] | MIC [1] [µg/mL] | Antimicrobial potency (MIC) S. aureus [2] [µg/mL] | MIC [2] [µg/mL] | MIC [3] [µg/mL] | Antimicrobial potency (MIC) E. coli [3] [µg/mL] | MIC [4] [µg/mL] | Anticancer potency (IC50) A20 (A20) [µg/mL] | Antimicrobial potency (MIC) MRSA [4] [µg/mL] | Anti-Cancer Selectivity MRC-5/A20 (A20) | Anti-Cancer Selectivity RBC/A20 (A20) | EC50 (human red blood cells) [µg/mL] | IC50 (MRC-5) [µg/mL] | Toxicity MRC-5 (MRC-5)
7 | NCCNC(=O)C(CN)(CCC1CCCCC1)CCC1CCCCC1 [Compound 3, N-(2-aminoethyl)-2-(aminomethyl)-4-cyclohexyl-2-(2-cyclohexylethyl)butanamide] | 1.7 | < 3.35 | 5 | 2.5 (≈ 7.11 µM) | 10 | 7.5 (≈ 21.3 µM) | 15 (≈ 42.7 µM) | 10 | – | – | – | (<5.9) | 36.5 | 62 (≈ 176 µM) | < 10 | –
8 | CC(C)(C)c1ccc(CC(CN)(Cc2ccc(C(C)(C)C)cc2)C(=O)NCCN)cc1 [Compound 11, 3-amino-N-(2-aminoethyl)-2,2-bis(4-tert-butylbenzyl)propanamide] | – | – | – | 2.5 (≈ 5.9 µM) | – | 2.5 (≈ 5.9 µM) | 5 (≈ 11.8 µM) | – | 2.5 (≈ 5.9 µM) | – | – | 3.6 | 10.9 | 12 (≈ 28.3 µM) | 4 (≈ 9.44 µM) | –
9 | NCCNC(=O)C(CN)(Cc1ccc(C(F)(F)F)cc1)Cc1ccc(C(F)(F)F)cc1 [Compound 9, 3-amino-N-(2-aminoethyl)-2,2-bis(4-(trifluoromethyl)benzyl)propanamide] | – | – | – | 10 (≈ 22.4 µM) | – | 10 (≈ 22.4 µM) | 35 (≈ 78.2 µM) | – | 5 (≈ 11.2 µM) | – | – | 10-12 | 287 | 287 (≈ 641 µM) | < 10 | 12 µg/mL
10 | Cc1cc(C)cc(CC(CNC(=O)[C@@H](Cc2c[nH]c3ccccc23)NC(=O)[C@@H](CCCCN)NC(=O)[C@H](N)CCCCN)(Cc2cc(C)cc(C)c2)C(=O)N[C@@H](Cc2c[nH]c3ccccc23)C(=O)N[C@@H](CCCCN)C(=O)N[C@@H](CCCCN)C(N)=O)c1 [Compound 22, (R)-N-((2R,9S,12S,15S)-9-((1H-indol-3-yl)methyl)-19-amino-12-(4-aminobutyl)-15-carbamoyl-6,6-bis(3,5-dimethylbenzyl)-1-(1H-indol-3-yl)-3,7,10,13-tetraoxo-4,8,11,14-tetraazanonadecan-2-yl)-6-amino-2-((R)-2,6-diaminohexanamido)hexanamide] (H-[dK][dK][dW][X1]WKK-NH2) | – | – | – | – | – | – | – | – | – | – | – | 7.4 and 5.1 | – | – | – | 237 µg/mL and 205 µg/mL
11 | NCCCC[C@@H](N)C(=O)N[C@H](CCCCN)C(=O)N[C@H](Cc1c[nH]c2ccccc12)C(=O)NCC(CCCc1ccccc1)(CCCc1ccccc1)C(=O)N[C@@H](Cc1c[nH]c2ccccc12)C(=O)N[C@@H](CCCCN)C(=O)N[C@@H](CCCCN)C(N)=O [Compound 17, (R)-N-((2R,9S,12S,15S)-9-((1H-indol-3-yl)methyl)-19-amino-12-(4-aminobutyl)-15-carbamoyl-1-(1H-indol-3-yl)-3,7,10,13-tetraoxo-6,6-bis(3-phenylpropyl)-4,8,11,14-tetraazanonadecan-2-yl)-6-amino-2-((R)-2,6-diaminohexanamido)hexanamide] (H-[dK][dK][dW][X2]WKK-NH2) | – | – | – | – | – | – | – | – | – | – | – | 9.1 and 5.5 | – | – | – | 241 µg/mL and 221 µg/mL
12 | CC(C)(C)c1ccc(CC(CNC(=O)[C@@H](Cc2c[nH]c3ccccc23)NC(=O)[C@@H](CCCCN)NC(=O)[C@H](N)CCCCN)(Cc2ccc(C(C)(C)C)cc2)C(=O)N[C@@H](Cc2c[nH]c3ccccc23)C(=O)N[C@@H](CCCCN)C(=O)N[C@@H](CCCCN)C(N)=O)cc1 [Compound 21, (R)-N-((2R,9S,12S,15S)-9-((1H-indol-3-yl)methyl)-19-amino-12-(4-aminobutyl)-6,6-bis(4-tert-butylbenzyl)-15-carbamoyl-1-(1H-indol-3-yl)-3,7,10,13-tetraoxo-4,8,11,14-tetraazanonadecan-2-yl)-6-amino-2-((R)-2,6-diaminohexanamido)hexanamide] | – | – | – | – | – | – | – | – | – | – | – | 2.9 and 3.2 | – | – | – | 42 µg/mL and 55.2 µg/mL
13 | Cc1cc(C)cc(CC(CN)(Cc2cc(C)cc(C)c2)C(=O)NCCN)c1 [Compound 12, 3-amino-N-(2-aminoethyl)-2,2-bis(3,5-dimethylbenzyl)propanamide] | < 10 | < 5 | 10 | 5 (≈ 13.6 µM) | – | 35 (≈ 95.2 µM) | 50 (≈ 136 µM) | 100 | 35 (≈ 95.2 µM) | – | – | (>2 ) | – | – | 10 (≈ 27.2 µM) | –
